Assay results from patent US20080200454A1, “CARBON-LINKED TETRAHYDRO-PYRAZOLO-PYRIDINE MODULATORS OF CATHEPSIN S” (priority 2007, published 2008).
Where two headings read alike, the source gives them in different places.

Target: Recombinant human cathepsin S (CatS) (Homo sapiens, UniProt P25774)
Assay: Recombinant human cathepsin S (CatS) inhibition assay, fluorogenic substrate Z-Valine-Valine-Arginine-AMC;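 also: Baculovirus-expressed CatS in pH 5.0 sodium acetate buffer with DTT and NaCl, fluorescence read each minute over 20 min, inhibition derived from rate slope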
[1] = CatS IC50, Table 2, average of results obtained

Recombinant human cathepsin S (CatS), sequence (P25774 115-331): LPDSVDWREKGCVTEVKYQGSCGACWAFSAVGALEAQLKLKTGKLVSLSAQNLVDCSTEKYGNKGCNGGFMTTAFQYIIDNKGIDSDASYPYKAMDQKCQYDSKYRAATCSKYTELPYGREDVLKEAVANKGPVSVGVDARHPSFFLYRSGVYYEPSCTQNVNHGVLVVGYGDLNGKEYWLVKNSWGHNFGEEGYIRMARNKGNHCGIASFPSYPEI

IC50 | Structure (SMILES) | also measured
60 nM | CS(=O)(=O)N1CCc2c(c(-c3ccc(Cl)c(C#Cc4ccc5c(c4)CNCC5)c3)nn2CCCN2CCC(C(N)=O)CC2)C1 [Example 135, 1-(3-{3-[4-Chloro-3-(1,2,3,4-tetrahydro-isoquinolin-7-ylethynyl)-phenyl]-5-methanesulfonyl-4,5,6,7-tetrahydro-pyrazolo[4,3-c]pyridin-1-yl}-propyl)-piperidine-4-carboxylic acid amide] | –
50 nM | COC(=O)C(=O)N1CCc2c(c(-c3ccc(Cl)c(C#Cc4ccc(Cl)cc4)c3)nn2CCCN2CCOCC2)C1 [Example 136, [3-[4-Chloro-3-(4-chloro-phenylethynyl)-phenyl]-1-(3-morpholin-4-yl-propyl)-1,4,6,7-tetrahydro-pyrazolo[4,3-c]pyridin-5-yl]-oxo-acetic acid methyl ester] | –
60 nM | NC(=O)N1CCc2c(c(-c3ccc(Cl)c(C#Cc4ccc(Cl)cc4)c3)nn2CCCN2CCOCC2)C1 [Example 144, 3-[4-Chloro-3-(4-chloro-phenylethynyl)-phenyl]-1-(3-morpholin-4-yl-propyl)-1,4,6,7-tetrahydro-pyrazolo[4,3-c]pyridine-5-carboxylic acid amide] | –
90 nM | NC(=O)N1CCc2c(c(-c3ccc(Cl)c(CCc4ccc(Cl)cc4)c3)nn2CCCN2CCOCC2)C1 [Example 145, 3-{4-Chloro-3-[2-(4-chloro-phenyl)-ethyl]-phenyl}-1-(3-morpholin-4-yl-propyl)-1,4,6,7-tetrahydro-pyrazolo[4,3-c]pyridine-5-carboxylic acid amide] | –
110 nM | CS(=O)(=O)N1CCc2c(c(-c3ccc(Cl)c(CCc4ccc(Cl)cc4)c3)nn2CC(O)CN2CCOCC2)C1 (stereo not drawn) [Example 149, 1-(3-{4-Chloro-3-[2-(4-chloro-phenyl)-ethyl]-phenyl}-5-methanesulfonyl-4,5,6,7-tetrahydro-pyrazolo[4,3-c]pyridin-1-yl)-3-morpholin-4-yl-propan-2-ol] | –
80 nM | NC(=O)C(=O)N1CCc2c(c(-c3ccc(Cl)c(C#Cc4ccc(CNCc5ccc(Cl)cc5)cc4)c3)nn2CCCN2CCOCC2)C1 [Example 150, 2-[3-(4-Chloro-3-{[4-({[(4-chlorophenyl)methyl]amino}methyl)phenyl]ethynyl}phenyl)-1-(3-morpholin-4-ylpropyl)-1,4,6,7-tetrahydro-5H-pyrazolo[4,3-c]pyridin-5-yl]-2-oxoacetamide] | –
90 nM | NC(=O)N1CCc2c(c(-c3ccc(Cl)c(C#Cc4ccc(CNCc5ccc(Cl)cc5)cc4)c3)nn2CCCN2CCOCC2)C1 [Example 151, 3-(4-Chloro-3-{[4-({[(4-chlorophenyl)methyl]amino}methyl)phenyl]ethynyl}phenyl)-1-(3-morpholin-4-ylpropyl)-1,4,6,7-tetrahydro-5H-pyrazolo[4,3-c]pyridine-5-carboxamide] | –
110 nM | CN(C)C(=O)C(=O)N1CCc2c(c(-c3ccc(Cl)c(C#Cc4ccc(CNCc5ccc(Cl)cc5)cc4)c3)nn2CCCN2CCOCC2)C1 [Example 152, 2-[3-(4-Chloro-3-{[4-({[(4-chlorophenyl)methyl]amino}methyl)phenyl]ethynyl}phenyl)-1-(3-morpholin-4-ylpropyl)-1,4,6,7-tetrahydro-5H-pyrazolo[4,3-c]pyridin-5-yl]-N,N-dimethyl-2-oxoacetamide] | –
180 nM | CN(C)S(=O)(=O)N1CCc2c(c(-c3ccc(Cl)c(C#Cc4ccc(CNCc5ccc(Cl)cc5)cc4)c3)nn2CCCN2CCOCC2)C1 [Example 153, 3-(4-Chloro-3-{[4-({[(4-chlorophenyl)methyl]amino}methyl)phenyl]ethynyl}phenyl)-N,N-dimethyl-1-(3-morpholin-4-ylpropyl)-1,4,6,7-tetrahydro-5H-pyrazolo[4,3-c]pyridine-5-sulfonamide] | –

Second part, the compound before the results:

Structure (SMILES) | IC50 | also measured
O=C(c1ccccn1)N1CCc2c(c(-c3ccc(Cl)c(C#Cc4ccc(Cl)cc4)c3)nn2CCCN2CCOCC2)C1 [Example 137, [3-[4-Chloro-3-(4-chloro-phenylethynyl)-phenyl]-1-(3-morpholin-4-yl-propyl)-1,4,6,7-tetrahydro-pyrazolo[4,3-c]pyridin-5-yl]-pyridin-2-yl-methanone] | – | IC50 (CatS IC50): 140 nM
O=C(c1ccco1)N1CCc2c(c(-c3ccc(Cl)c(C#Cc4ccc(Cl)cc4)c3)nn2CCCN2CCOCC2)C1 [Example 138, [3-[4-Chloro-3-(4-chloro-phenylethynyl)-phenyl]-1-(3-morpholin-4-yl-propyl)-1,4,6,7-tetrahydro-pyrazolo[4,3-c]pyridin-5-yl]-furan-2-yl-methanone] | – | IC50 [1]: 350 nM
O=C(N1CCc2c(c(-c3ccc(Cl)c(C#Cc4ccc(Cl)cc4)c3)nn2CCCN2CCOCC2)C1)C(F)(F)F [Example 139, 1-[3-[4-Chloro-3-(4-chloro-phenylethynyl)-phenyl]-1-(3-morpholin-4-yl-propyl)-1,4,6,7-tetrahydro-pyrazolo[4,3-c]pyridin-5-yl]-2,2,2-trifluoro-ethanone] | – | IC50 [1]: 230 nM
O=C(CF)N1CCc2c(c(-c3ccc(Cl)c(C#Cc4ccc(Cl)cc4)c3)nn2CCCN2CCOCC2)C1 [Example 140, 1-[3-[4-Chloro-3-(4-chloro-phenylethynyl)-phenyl]-1-(3-morpholin-4-yl-propyl)-1,4,6,7-tetrahydro-pyrazolo[4,3-c]pyridin-5-yl]-2-fluoro-ethanone] | – | IC50 [1]: 250 nM
O=C(C1CCCO1)N1CCc2c(c(-c3ccc(Cl)c(C#Cc4ccc(Cl)cc4)c3)nn2CCCN2CCOCC2)C1 (stereo not drawn) [Example 141, [3-[4-Chloro-3-(4-chloro-phenylethynyl)-phenyl]-1-(3-morpholin-4-yl-propyl)-1,4,6,7-tetrahydro-pyrazolo[4,3-c]pyridin-5-yl]-(tetrahydro-furan-2-yl)-methanone] | – | IC50 (CatS IC50): 310 nM
CC(=O)OCC(=O)N1CCc2c(c(-c3ccc(Cl)c(C#Cc4ccc(Cl)cc4)c3)nn2CCCN2CCOCC2)C1 [Example 142, Acetic acid 2-[3-[4-chloro-3-(4-chloro-phenylethynyl)-phenyl]-1-(3-morpholin-4-yl-propyl)-1,4,6,7-tetrahydro-pyrazolo[4,3-c]pyridin-5-yl]-2-oxo-ethyl ester] | – | IC50 (CatS IC50): 280 nM
CS(=O)(=O)N1CCc2c(c(-c3ccc(C(F)(F)F)c(CCc4ccc(Cl)cc4)c3)nn2CC(O)CN2CCC(N3CCCC3=O)CC2)C1 (stereo not drawn) [Example 146, 1-{1-[3-(3-{3-[2-(4-Chloro-phenyl)-ethyl]-4-trifluoromethyl-phenyl}-5-methanesulfonyl-4,5,6,7-tetrahydro-pyrazolo[4,3-c]pyridin-1-yl)-2-hydroxy-propyl]-piperidin-4-yl}-pyrrolidin-2-one] | 60 nM | –
CS(=O)(=O)N1CCc2c(c(-c3ccc(C(F)(F)F)c(CCc4ccc(Cl)cc4)c3)nn2CC(O)CN2CCOCC2)C1 (stereo not drawn) [Example 147, 1-(3-{3-[2-(4-Chloro-phenyl)-ethyl]-4-trifluoromethyl-phenyl}-5-methanesulfonyl-4,5,6,7-tetrahydro-pyrazolo[4,3-c]pyridin-1-yl)-3-morpholin-4-yl-propan-2-ol] | 410 nM | –
CS(=O)(=O)N1CCc2c(c(-c3ccc(Cl)c(CCc4ccc(Cl)cc4)c3)nn2CC(O)CN2CCC3(CCNC3=O)CC2)C1 (stereo not drawn) [Example 148, 8-[3-(3-{4-Chloro-3-[2-(4-chloro-phenyl)-ethyl]-phenyl}-5-methanesulfonyl-4,5,6,7-tetrahydro-pyrazolo[4,3-c]pyridin-1-yl)-2-hydroxy-propyl]-2,8-diaza-spiro[4.5]decan-1-one] | 80 nM | –
